According to patent US20240000777A1, “USE OF AN ERK INHIBITOR FOR THE TREATMENT OF MYELOFIBROSIS” (Novartis AG, priority 2020, published 2024):

What was measured:
[1] = tested on: Jak2V617F Erk1-/- Erk2 fl/fl Mx-Cre mice; assay: Genetic deletion of ERK1/2 plus ruxolitinib in Jak2V617F MPN mouse model; type: in vivo; conditions: ruxolitinib for 2 weeks combined with ERK1/2 deletion
Excerpt: Jak2V617F Mx-Cre mouse was crossed with Erk1−/− Erk2 fl/fl Mx-Cre mice to genetically delete ERK1/2 to obtain Jak2V617F Erk1−/− Erk2 fl/fl Mx-Cre offspring.

[2] = tested on: JAK2V617F PV/MF mouse model; type: in vivo; conditions: oral, 14 consecutive days, ruxolitinib 60 mg/kg BID, Compound A 75 mg/kg QD

## N#CC[C@H](C1CCCC1)n1cc(-c2ncnc3[nH]ccc23)cn1 [ruxolitinib, (R)-3-(4-(7H-pyrrolo[2,3-d]pyrimidin-4-yl)-1H-pyrazol-1-yl)-3-cyclopentylpropanenitrile]
[1]; FIG. 7B
  normalizing red blood cell count: more effective
[1]; versus single interventions, FIG. 7A
  reducing the mutant clone: more effective

## CNC[C@@H](NC(=O)c1ccc(-c2nc([C@H]3CC[C@H](O)[C@@H](F)C3)cnc2N)cc1F)c1cc(F)cc(Br)c1 [Compound A, 4-(3-amino-6-((1S,3S,4S)-3-fluoro-4-hydroxycyclohexyl)pyrazin-2-yl)-N—((S)-1-(3-bromo-5-fluorophenyl)-2-(methylamino)ethyl)-2-fluorobenzamide]
[2]
  polycythemia: significantly normalizes
[2]; FIG. 3A
  elevated hematocrit: significantly normalizes
[2]; FIG. 3B
  splenomegaly: significantly normalizes
